Laboratory results: patent publication US20260166128A1, “HUMAN AMYLIN ANALOG, AND DERIVATIVE THEREOF AND USE THEREOF” (priority 2022, published 2026)
Like-named read-outs stand apart in the source and are kept apart here. Numbered stars: 1 amine (or outer) side, 2 acyl side, 3 side chain; on linkers, the order of the positions; unused ones are H or OH. Bridge positions count the residues as written; N and C are the ends. Primed or numbered codes have the meaning given here. Peptide text beside a SMILES is read from it. * marks the point of attachment. C20 diacid = O=C(O)CCCCCCCCCCCCCCCCCCC(=O)*; γGlu = O=C(O)[C@H](CCC(=O)[*:2])N[*:1]; Trx′ = not defined here

How the values were obtained:
human amylin receptor = molecular target: T1, human amylin receptor (Homo sapiens, UniProt O60896+P30988); assay: Luciferase assay of amylin derivatives in amylin receptor/CRE-luc CHO cell line; format: cell-based; conditions: 24 hours incubation, F12 medium containing 10% FBS
T1 construct: host or cells: CHO-K1/Ga15/AMY3 cells, further stably transfected with a CRE-luciferase plasmid
T1 sequence (P30988 25-474): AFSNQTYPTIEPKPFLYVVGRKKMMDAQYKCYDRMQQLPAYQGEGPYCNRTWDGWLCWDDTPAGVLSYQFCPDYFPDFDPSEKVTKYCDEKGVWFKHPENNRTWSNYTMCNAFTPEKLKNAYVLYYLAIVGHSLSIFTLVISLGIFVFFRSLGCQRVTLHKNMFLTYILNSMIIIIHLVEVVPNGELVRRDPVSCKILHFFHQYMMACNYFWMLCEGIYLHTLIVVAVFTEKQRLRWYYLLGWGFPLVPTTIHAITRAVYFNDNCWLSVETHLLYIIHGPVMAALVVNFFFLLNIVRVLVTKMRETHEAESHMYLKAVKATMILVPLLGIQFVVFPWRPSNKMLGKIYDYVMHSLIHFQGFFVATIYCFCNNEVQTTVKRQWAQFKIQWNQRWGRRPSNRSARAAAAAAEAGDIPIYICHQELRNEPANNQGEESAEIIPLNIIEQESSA
T1 sequence (O60896 24-148 partner): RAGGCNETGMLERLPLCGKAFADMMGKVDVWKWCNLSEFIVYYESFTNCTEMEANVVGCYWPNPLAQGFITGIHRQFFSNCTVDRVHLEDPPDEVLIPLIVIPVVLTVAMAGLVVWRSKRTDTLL
Protocol: The experiment was intended to detect the activity or efficacy of the amylin derivatives on a human amylin receptor in vitro by luciferase assay.
50 μL of growth medium (F12 medium containing 10% FBS) was added into each well of a white 96-well plate, and the stably transfected amylin/CRE-lue CHO cells were inoculated into the white 96-well plate at a density of about 20,000 cells/well for activity determination.

[1] = Freeze-thaw stability of derivatives (freeze-thaw yield by liquid chromatography); format: physicochemical; conditions: for Dissolution property: appearance after dissolution at 0.2 mg/ml in 20 mM phosphate buffer solution (PB) (pH 7.0); for Freeze storage property: appearance after overnight storage at −20° C. and thawing to room temperature, 0.2 mg/ml in 20 mM PB (pH 7.0); for Freeze storage yield: concentration of polypeptide after freezing and thawing / concentration before, by liquid chromatography, −20° C. overnight
Method in brief: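 Lyophilised peptide derivative dissolved at 0.2 mg/ml in 20 mM phosphate buffer, pH 7.0, frozen overnight at −20° C, then thawed at room temperature. Peptide concentration before and after freeze-thaw measured by reversed-phase HPLC on centrifuged supernatant; yield = post-thaw/pre-thaw concentration.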

[2] = format: physicochemical; conditions: 40° C.
Protocol: The penicillin bottle after covering was placed in a stability test box at 40° C. Before testing, a sample was centrifuged at 10,000 rpm and 4° C. for 3 minutes, and a supernatant was taken and added into a liquid-phase sample injection bottle. The sample was detected by the liquid phase method in Example 3.

[3] = Weight loss efficacy of derivatives in SD rats (Example 5); format: in vivo, SD (Sprague Dawley) rats; conditions: subcutaneous, 30 nmol/kg
Source text: SD (Sprague Dawley) rats weighing 200 g to 250 g were selected for this experimental study. Before the experiment, the rats arrived for at least 10 days to 14 days to adapt to the experimental environment. During this period, the rats were fed for two weeks in a reversed light/dark stage (meaning that the light was turned off during the day and turned on during the night) after arrival, and were fed separately in the first week of arrival to ensure accurate data and high test sensitivity, and the rats were free to obtain food and water during the whole adaptation period and experimental period. There were an experimental group [NT]5 and A6, and an experimental group B: B1, B2, B3, B4 and B5, with 5 to 8 rats in each treatment group of the derivative, and the rats in each group were subcutaneously administered with a derivative or a solvent by a dosage of 30 nmol/kg. The administration time of each group was recorded. After administration, the rats were put back into their cages in which the rats could get food and water. Food consumption and weight changes of the rats were recorded every 24 hours by online recording or manual recording. Weight and food intake changes of the SD rats in each group were as shown in FIG. 2A to FIG. 2D, Table 9 and Table 10.

[4] = Weight loss effect of dosage of derivatives in SD rats (Example 6); format: in vivo; conditions: subcutaneous
Protocol: SD rats obtained by the same method as in Example 5 were used in this experimental study. There were an experimental group C: C1 to C13, and an experimental group D: D1 to D7, with 5 to 8 rats in each group of the derivative test, and according to administration schemes as shown in Table 11 and Table 12, the rats in each group […] The administration time of each group was recorded. After administration, the rats were put back into their cages in which the rats could get food and water. Food consumption and weight changes of the rats were recorded every 24 hours by online recording or manual recording. Weight and cumulative food intake changes of the SD rats in each group were as shown in FIG. 3A to FIG. 3D, FIG. 4A to FIG. 4B, Table 11 and Table 12.

[5] = Study on fatty acid side chain of derivatives, weight reduction in SD rats (Example 7); format: in vivo; conditions: subcutaneous, 30 nmol/kg
Source text: SD rats obtained by the same method as in Example 5 were used in this experimental study. There were an experimental group E: for testing weight reduction effects of the compounds PD065 and PD187, and an experimental group F: for testing the compounds PD065, PD071, PD140, PD144, PD145, PD146 and PD147, with 5 to 8 rats in each group of the derivative test, and the rats in each group were subcutaneously administered with a derivative or a solvent by a dosage of 30 nmol/kg. The administration time of each group was recorded. After administration, the rats were put back into their cages in which food and water available for the rats were placed. Food consumption and weight changes of the rats were recorded every 24 hours by online recording or manual recording.

[6] = experimental group C, 10 nmol/kg
[7] = experimental group C, 30 nmol/kg
[8] = experimental group C, 100 nmol/kg
[9] = experimental group D, 10 nmol/kg
[10] = experimental group D, 30 nmol/kg
[11] = experimental group D, 100 nmol/kg
[12] = CHO-K1/Ga15/AMY3 CRE-luc cells, read-out: EC50

CC[C@H](C)[C@H](NC(=O)[C@@H]1CCCN1C(=O)CNC(=O)[C@H](Cc1ccccc1)NC(=O)[C@H](CC(N)=O)NC(=O)[C@H](CC(N)=O)NC(=O)[C@H](CO)NC(=O)[C@H](CO)NC(=O)[C@H](Cc1c[nH]cn1)NC(=O)[C@H](CCCNC(=N)N)NC(=O)[C@H](CC(C)C)NC(=O)[C@H](Cc1ccccc1)NC(=O)[C@H](CCC(=O)O)NC(=O)[C@H](C)NC(=O)[C@H](CC(C)C)NC(=O)[C@H](CCCNC(=N)N)NC(=O)[C@H](CCC(N)=O)NC(=O)[C@@H](NC(=O)[C@H](C)NC(=O)[C@@H]1CSSC[C@H](NC(=O)[C@H](CCCCN)NC(=O)CC[C@H](NC(=O)CCCCCCCCCCCCCCCCCCC(=O)O)C(=O)O)C(=O)N[C@@H](CC(N)=O)C(=O)N[C@@H]([C@@H](C)O)C(=O)N[C@@H](C)C(=O)N[C@@H]([C@@H](C)O)C(=O)N1)[C@@H](C)O)C(=O)N[C@@H](CC(C)C)C(=O)N1CCC[C@H]1C(=O)N1CCC[C@H]1C(=O)N[C@H](C(=O)N[C@@H](CC(N)=O)C(=O)N[C@H](C(=O)NCC(=O)N[C@@H](CO)C(=O)N[C@@H](CC(N)=O)C(=O)N[C@H](C(=O)N1CCC[C@H]1C(N)=O)[C@@H](C)O)C(C)C)[C@@H](C)O [PD065, Cagrilintide]
EC50 (human amylin receptor; EC50, CHO-K1/Ga15/AMY3 CRE-luc cells): 0.038 nM | Dissolution property [1]: Clear | Freeze storage property [1]: Clear | Freeze storage yield [1]: 93.44% | Decrease percentage of protein concentration ([2]; pH about 7.4, 0 d): 0.00% | Protein concentration ([2]; pH about 7.4, 0 d): 0.81 mg/mL | Decrease percentage of protein concentration ([2]; pH about 7.4, 7 d): 22.35% | Protein concentration ([2]; pH about 7.4, 7 d): 0.63 mg/mL | Decrease percentage of protein concentration ([2]; pH about 7.4, 15 d): 46.78% | Protein concentration ([2]; pH about 7.4, 15 d): 0.43 mg/mL | Weight change rate at 48th hour ([3]; experimental group A): −6.13 | Weight change rate at 48th hour ([3]; experimental group B): −6.74 | Cumulative food intake at 72nd hour [4, 6]: 78.31 g | Weight change rate at 72nd hour [4, 6]: 1.59% | Cumulative food intake at 72nd hour [4, 7]: 60.22 g | Weight change rate at 72nd hour [4, 7]: 0.46% | Cumulative food intake at 72nd hour [4, 8]: 44.41 g | Weight change rate at 72nd hour [4, 8]: −6.61% | Cumulative food intake at 72nd hour [4, 9]: 64.27 g | Weight change rate at 72nd hour [4, 9]: 5.95% | Cumulative food intake at 72nd hour [4, 10]: 48.00 g | Weight change rate at 72nd hour [4, 10]: 2.81% | Cumulative food intake at 72nd hour [4, 11]: 33.89 g | Weight change rate at 72nd hour [4, 11]: −3.81%

CC[C@H](C)[C@H](NC(=O)[C@@H]1CCCN1C(=O)[C@H](CCCCN)NC(=O)[C@H](CC(C)C)NC(=O)[C@H](CC(N)=O)NC(=O)[C@H](CC(N)=O)NC(=O)[C@H](CO)NC(=O)[C@H](CO)NC(=O)[C@H](Cc1c[nH]cn1)NC(=O)[C@H](CCCNC(=N)N)NC(=O)[C@H](CC(C)C)NC(=O)[C@H](Cc1ccccc1)NC(=O)[C@H](CC(=O)O)NC(=O)[C@H](C)NC(=O)[C@H](CC(C)C)NC(=O)[C@H](CCCNC(=N)N)NC(=O)[C@H](CCC(N)=O)NC(=O)[C@@H](NC(=O)[C@H](C)NC(=O)[C@@H]1CSSC[C@H](NC(=O)[C@H](CCCCN)NC(=O)CC[C@H](NC(=O)CCCCCCCCCCCCCCCCCCC(=O)O)C(=O)O)C(=O)N[C@@H](CC(N)=O)C(=O)N[C@@H]([C@@H](C)O)C(=O)N[C@@H](C)C(=O)N[C@@H]([C@@H](C)O)C(=O)N1)[C@@H](C)O)C(=O)N[C@@H](CC(C)C)C(=O)N1CCC[C@H]1C(=O)N1CCC[C@H]1C(=O)N[C@H](C(=O)N[C@@H](CC(N)=O)C(=O)N[C@H](C(=O)NCC(=O)N[C@@H](CO)C(=O)N[C@@H](CC(N)=O)C(=O)N[C@H](C(=O)N1CCC[C@H]1C(N)=O)[C@@H](C)O)C(C)C)[C@@H](C)O [PD160] ({C20 diacid-γGlu}-KCNTATCATQRLADFLRHSSNNLKPILPPTNVGSNTP-NH2; disulfide 2-7 (inferred))
EC50 (human amylin receptor; [12]): 0.035 nM | Weight change rate at 48th hour ([3]; experimental group B): −7.87

CC[C@H](C)[C@H](NC(=O)[C@@H]1CCCN1C(=O)[C@H](CCCNC(=N)N)NC(=O)[C@H](CC(C)C)NC(=O)[C@H](CC(N)=O)NC(=O)[C@H](CC(N)=O)NC(=O)[C@H](CO)NC(=O)[C@H](CO)NC(=O)[C@H](Cc1c[nH]cn1)NC(=O)[C@H](CCCNC(=N)N)NC(=O)[C@H](CC(C)C)NC(=O)[C@H](Cc1ccccc1)NC(=O)[C@H](CC(=O)O)NC(=O)[C@H](C)NC(=O)[C@H](CC(C)C)NC(=O)[C@H](CCCNC(=N)N)NC(=O)[C@H](CCC(N)=O)NC(=O)[C@@H](NC(=O)[C@H](C)NC(=O)[C@@H]1CSSC[C@H](NC(=O)[C@H](CCCCN)NC(=O)CC[C@H](NC(=O)CCCCCCCCCCCCCCCCCCC(=O)O)C(=O)O)C(=O)N[C@@H](CC(N)=O)C(=O)N[C@@H]([C@@H](C)O)C(=O)N[C@@H](C)C(=O)N[C@@H]([C@@H](C)O)C(=O)N1)[C@@H](C)O)C(=O)N[C@@H](CC(C)C)C(=O)N1CCC[C@H]1C(=O)N1CCC[C@H]1C(=O)N[C@H](C(=O)N[C@@H](CC(N)=O)C(=O)N[C@H](C(=O)NCC(=O)N[C@@H](CO)C(=O)N[C@@H](CC(N)=O)C(=O)N[C@H](C(=O)N1CCC[C@H]1C(N)=O)[C@@H](C)O)C(C)C)[C@@H](C)O [PD161] ({C20 diacid-γGlu}-KCNTATCATQRLADFLRHSSNNLRPILPPTNVGSNTP-NH2; disulfide 2-7 (inferred))
EC50 (human amylin receptor; [12]): 0.026 nM | Weight change rate at 48th hour ([3]; experimental group B): −7.81

PD146: KCNTATCATQRLADFLRHSSNNLKPILPPTNVGSNT-trans-Hyp-NH2; N-terminal; Trx + C20 diacid ({C20 diacid-Trx′}-KCNTATCATQRLADFLRHSSNNLKPILPPTNVGSNT-{trans‑Hyp-NH2}; disulfide 2-7 (inferred); reading uncertain; also: printed as KCNTATCATQRLADFLRHSSNNLKPILPPTNVGSNT-trans-Hyp-NH2)
Dissolution property [1]: Clear | Freeze storage property [1]: Clear | Freeze storage yield [1]: 101.09% | activity (weight reduction effect) compared with PD065 [5]: better than that of the PD065
